Assay results: patent publication EP3570868B1, “[…] ANTIMICROBIAL PEPTIDES AND THEIR APPLICATIONS FOR THE TREATMENT AND PREVENTION OF MUSCU[…]” (Ustav Organicke Chemie a Biochemie AV CR, v.v.i., priority 2017, dated 2018)
Peptide text beside a SMILES is read from it.

Experiments:
[1] = test system: MRSA (clin. isolate Liberec); assay: Biofilm formation on the surface of a bone cement implant in femur heads; assay type: cell-based, Staphylococcus aureus; conditions: two days, cement without peptide 7,0x10^6
Method: The resulting elastic paste is placed into a 2 ml plastic syringe (without needle) and pressed into the infected holes in the spongy part of the bone, where it polymerizes and hardens. For comparison, other similarly infected holes are filled with cement containing only an antibiotic or antimycotic agent. For comparison, a Vancogenx® cement (Tecresa S. p. A., Italy) is used, made from a mixture of a powdered polymer component containing vancomycin and gentamicin. The mixture in an amount of 125 mg is mixed with liquid monomer (50-60 µl) and then pressed into the openings as described above. In another embodiment, the cements are applied to uninfected holes, allowed to harden, and then microbes are pipetted into the hole excavated between implants. From there they penetrate through bone tissue and settle on the implants with consequent formation of biofilms.
After two days, implants are removed with metal spikes and tweezers, mechanically cleaned from debris of bone tissue, and washed four times with physiological saline (0.5 ml) in plastic tubes to remove any residual planktonic microbes or bone cells from their surface. The implants in closed tubes with 0.4 ml saline are then sonicated four times for 3 min with occasional shaking. The of microbial biofilm on the surface of the implant is thus disrupted and microbes are loosed into the physiological saline. […]

human red blood cells = assay: Determination of haemolytic activity; assay type: cell-based; conditions: human red blood cells (5% v/v), 1 h at 37 °C; concentration for lysis of 50% of erythrocytes
Method: The peptides in the concentrations 2-400 µmol.1^-1 were incubated with the suspension of human red blood cells (5% v/v) for 1 h at 37 °C in a physiological solution at a final volume of 0.2 ml. The samples were then centrifuged for 5 min at 250 g. The absorbance of the supernatant was determined at 540 nm. 0.2% (v/v) TRITON X100 was used as a control for 100% haemolysis. Haemolytic activity is expressed as the peptide concentration required for lysis of 50% of human erythrocytes in the assay (LC50). Table 2. Antimicrobial and haemolytic activity of I up to XIII peptides and tetracycline.

[2] = test system: S.e. (clin. isolate Motol); assay type: cell-based, Staphylococcus epidermidis; conditions: 37° C for 20 h
Method: (§1) Gram-positive bacteria (Bacillus subtilis, Staphylococcus aureus, Staphylococcus epidermidis and Enterococcus faecalis), Gram-negative bacteria (Escherichia coli and Pseudomonas aeruginosa) and the yeast (Candida albicans) were grown to exponential phase and then were diluted with fresh medium. BHI medium (Oxoid, Great Britain) was used for Enterococcus faecalis; YPD medium containing yeast extract, peptone and glucose was used for Candida albicans and LB medium (Sigma, Czech Republic) was used for the remaining microorganisms. Then the microorganisms were added to the solutions of the tested antimicrobial peptides in LB medium in multi-well plates, so that the final peptide concentration it the wells was in the range of 0.5 to 100 µmοl.1^-1. The plates were incubated at 37° C for 20 h while being continuously shaken in a Bioscreen C (Oy Growth Curves AB Ltd., Helsinki, Finland). Absorbance was measured at 540 nm every 15 min. Antimicrobial activity (Table 2) was determined as a quantitative minimum inhibitory concentration (MIC) by observing bacterial growth in the presence of different concentrations of tested peptides. In the experiments, ca 10^5 CFU of bacteria or candida per well were used. Tetracycline in a concentration range of 0.5 - 100 µmol.1^-1 was used as a standard.
(§2) Clinical isolates of bacteria were obtained from University Hospital in Motol, Prague, Czech Republic and from Liberec Regional Hospital, Czech Republic. Methicillin resistant Staphylococcus aureus (MRSA) 6271 and Pseudomonas aeruginosa 5482 were from the Czech National Collection of Type Cultures, the National Institute of Public Health, Prague, Czech Republic. Other bacteria were from the Czech Collection of Microorganisms, Brno, Czech Republic. Candida albicans came from the Faculty of Medicine, Palacky University, Olomouc, Czech Republic. Candida tropicalis ATCC 750 and Candida glabrata DSY 565 were obtained from the Institute of Physiology, Academy of Sciences of the Czech Republic.

Candida albicans = assay type: cell-based; conditions: C.a.; 37° C for 20 h
Method: as §1, §2

Bacillus subtilis = assay type: cell-based; conditions: B.s.; 37° C for 20 h
Method: as §1, §2

Escherichia coli = assay type: cell-based; conditions: E.c.; 37° C for 20 h
Method: as §1, §2

MRSA 6271 = assay type: cell-based, Staphylococcus aureus; conditions: 37° C for 20 h
Method: as §1, §2

[3] = test system: MRSA (clin. isolate Liberec); assay type: cell-based, Staphylococcus aureus; conditions: 37° C for 20 h
Method: as §1, §2

[4] = test system: MRSA (clin. isolate Motol); assay type: cell-based, Staphylococcus aureus; conditions: 37° C for 20 h
Method: as §1, §2

[5] = test system: S. aureus (clin. isolate Liberec); assay: Induced osteomyelitis model in femur heads: effect of peptides released from carrier on infection in the bone graft; assay type: cell-based; conditions: ChronOS (200 mg), 10 mg, two days
Method: (§3) 3-4 holes of a diameter of 5 mm and a depth of 10 mm are drilled with a surgical spoon into a femur head under sterile conditions (spongy part of the bone in the resection site). Thereafter, this bone graft is put into a beaker of appropriate size and lined with sterile gauze squares. The gauze is moistened with sterile physiological saline to prevent drying of the bone. Then, suspension of multiplied microbes in an appropriate medium (50-100 µl) at a concentration of 10^7 to 10^9 CFU is sequentially applied to the prepared holes in the bone graft and allowed to incubate for 1-2 days. […] Beaker with the infected bone graft is covered with a sterile Petri dish. During the experiment, induced osteomyelitis models are kept protected from light at room temperature.
(§4) After the incubation, the infected holes in the bone are filled with a mixture of the local carrier, and a peptide selected from the series of peptides of formulae I to XIII or their specific enantiomers (Figure 1). For comparison, one of the holes is filled with the local carrier without peptide, or the carrier filled with antibiotic (vancomycin or gentamicin). A commercially available two-component material supplied by Synthes (Synthes GmbH, Switzerland) under the name ChronOS Inject was used as the carrier. Its solid component comprises a mixture of calcium phosphates CaHPO4.2H2O and Ca3(PO4)2 and additives, the liquid component is 0.5% (vol./vol.) solution of hyaluronic acid.
(§5) After two days, the filling is thoroughly removed with a surgical spoon and empty holes are wiped with moistened sterile cotton swab, which is then extracted into 400 µl physiological saline. The extract is diluted in a tenfold serial dilution and each diluted suspension is cultured on agar in Petri dishes; the culture is evaluated on the following day. […] The result of the peptide effect is also compared with the result of the effect of antibiotics. In some cases, microbiological examination of the bone tissue taken with a surgical spoon from a deeper area of the drilled holes is performed. […] Table 3. Evaluation of the effect of antimicrobial peptides released from the carrier on an infection in the bone graft. Effect of antimicrobial activity is expressed in the number of CFU (colony-forming units) in the infected hole after swabbing.

P.a. 5482 = assay type: cell-based, Pseudomonas aeruginosa; conditions: 37° C for 20 h
Method: as §1, §2

[6] = test system: P.a. (clin. isolate Liberec); assay type: cell-based, Pseudomonas aeruginosa; conditions: 37° C for 20 h
Method: as §1, §2

[7] = test system: E.f. (clin. isolate Motol); assay type: cell-based, Enterococcus faecalis; conditions: 37° C for 20 h
Method: as §1, §2

[8] = test system: S. epidermidis (clin. isolate Motol); assay: Induced osteomyelitis model in femur heads: effect of peptides released from carrier on infection in the bone graft; assay type: cell-based; conditions: ChronOS (300 mg); 10 mg, separate holes; two days; carrier without peptide 1,2x10^5
Method: as §3, §4, §5

[9] = test system: Staphylococcus aureus (MRSA 6271); assay: Eradication of the infection inside the spongy bone tissue (bone grafts, peptide in carrier); assay type: cell-based; conditions: carrier (200 mg) with peptide VIII (10 mg), two days
Method: Experiments was carried out similarly as described above using two graft bones. The suspension of Staphylococcus aureus (MRSA 6271) in LB medium (50 - 100 µl) in the concentration 10^9 CFU/ml was pipetted into two holes drilled in each bone graft. On the next day the one hole in one bone graft was filled with the carrier (200 mg) blended with peptide VIII (10 mg). The second hole was filled with carrier alone (200 mg). In the second bone graft the two holes were filled identically.
The experiments were evaluated after two days of the treatment by the comparison of the number of bacterial colonies (CFU/ml) related to the infected hole in which the peptide was released from the carrier and acted against the infection, against the number of the colonies related to the infected hole which was filled only with the carrier alone. The results of these two independent experiments which are summarized in Table 5 clearly show high efficacy of the peptide VIII. Table 5. Effect of peptide VIII on the eradication of the infection inside the spongy bone tissue Carried out in two independent experiments.

| Structure (SMILES) | CFU/implant [1] [CFU/implant] | Hemolytic activity LC50 (human red blood cells) | Antimicrobial activity MIC [2] | Antimicrobial activity MIC (Candida albicans) | Antimicrobial activity MIC (Bacillus subtilis) | Antimicrobial activity MIC (Escherichia coli) | Antimicrobial activity MIC (MRSA 6271) | Antimicrobial activity MIC [3] | Antimicrobial activity MIC [4] | CFU/hole ([5]; carrier without peptide 2,0x10^6) | Antimicrobial activity MIC (P.a. 5482) | Antimicrobial activity MIC [6] | Antimicrobial activity MIC [7] [µM] | CFU/hole ([5]; separate holes, carrier without peptide 3,9x10^6) [CFU/hole] | CFU/hole [8] [in all cases CFU/hole] | CFU/hole ([9]; first experiment, no peptide 1.2x10^7) [CFU/ hole] | CFU/hole ([9]; second experiment, no peptide 3.6x10^6) |
| --- | --- | --- | --- | --- | --- | --- | --- | --- | --- | --- | --- | --- | --- | --- | --- | --- | --- |
| CC[C@H](C)[C@H](NC(=O)[C@H](CCCCN)NC(=O)[C@H](CCCCN)NC(=O)[C@H](CC(C)C)NC(=O)[C@H](CCSC)NC(=O)[C@H](CCCCN)NC(=O)[C@H](CCSC)NC(=O)[C@H](Cc1c[nH]c2ccccc12)NC(=O)[C@H](CCCCN)NC(=O)CN)C(=O)N[C@@H](CC(C)C)C(=O)N[C@@H](CCCCN)C(N)=O [XI] (H-GKWMKMLKKILK-NH2) | 0 | >>200 µmol.l^-1 | 3,2 µmol.l^-1 | 12,7 µmol.l^-1 | 2,5 µmol.l^-1 | 20,0 µmol.l^-1 | 20,0 µmol.l^-1 | 10,0 µmol.l^-1 | 20,0 µmol.l^-1 | 2,5 x10^3 CFU/hole | 5,3 µmol.l^-1 | 12,7 µmol.l^-1 | >100 |  |  |  |  |
| CC[C@H](C)[C@H](NC(=O)[C@H](CCCCN)NC(=O)[C@H](CCCCN)NC(=O)[C@H](CC(C)C)NC(=O)[C@H](CC(C)C)NC(=O)[C@H](CCCCN)NC(=O)[C@@H](NC(=O)[C@H](Cc1c[nH]c2ccccc12)NC(=O)[C@H](CCCCN)NC(=O)CN)C(C)C)C(=O)N[C@@H](CC(C)C)C(=O)N[C@@H](CCCCN)C(N)=O [Peptide VIII] (H-GKWVKLLKKILK-NH2) |  | >400 µmol/L | 2,5 µmol.l^-1 | 6,3 µmol.l^-1 | 2,0 µmol.l^-1 | 6,3 µmol.l^-1 | 9,0 µmol.l^-1 | 5,0 µmol.l^-1 | 10,0 µmol.l^-1 |  | 3,0 µmol.l^-1 | 12,7 µmol.l^-1 | >100 | 0 | 0 | 0 | 4.8x10^2 CFU/ hole |
